The assay addresses T1, NS1 protein (RSV non-structural protein NS1) (Human respiratory syncytial virus A2, UniProt P0DOE9).
T1 construct: gene 1C; NS1 coupled to CM5 chip
Kind of assay: SPR (Biacore T200, NS1 coupled to CM5 chip). It counts as binding.

T1 sequence (P0DOE9 whole entry): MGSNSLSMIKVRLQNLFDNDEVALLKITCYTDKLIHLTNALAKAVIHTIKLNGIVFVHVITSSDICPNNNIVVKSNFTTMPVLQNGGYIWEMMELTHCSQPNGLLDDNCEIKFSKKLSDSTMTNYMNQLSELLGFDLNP

In general, Kd refers to the free concentration of one partner at which half of the binding sites on the other are occupied at equilibrium, for simple one-to-one binding. `O=C(O)[C@H]1O[C@@H](Oc2cc3oc(-c4ccccc4)cc(=O)c3c(O)c2O)[C@H](O)[C@@H](O)[C@@H]1O` [baicalin] had a Kd of 11.2 µM.

The values are drawn from publication PMC9259847, “Baicalin Induces a Potent Innate Immune Response to Inhibit Respiratory Syncytial Virus Replication via Regulating Viral Non-Structural 1 and Matrix RNA” (Frontiers in Immunology, 2022).
